Measured values from ChEMBL document CHEMBL3621155, “The status of the lysophosphatidic acid receptor type 1 (LPA1R)” (Medchemcomm, 2015).

Key:
[1] = biological target: T1, Lysophosphatidic acid receptor 3 (Homo sapiens, UniProt Q9UBY5); experiment: Agonist activity at human LPA3 receptor transfected in HEK293T cells after 30 mins by GTP[gamma-35S] binding assay; assay type: cell-based, HEK-293T
T1 sequence (Q9UBY5 whole entry): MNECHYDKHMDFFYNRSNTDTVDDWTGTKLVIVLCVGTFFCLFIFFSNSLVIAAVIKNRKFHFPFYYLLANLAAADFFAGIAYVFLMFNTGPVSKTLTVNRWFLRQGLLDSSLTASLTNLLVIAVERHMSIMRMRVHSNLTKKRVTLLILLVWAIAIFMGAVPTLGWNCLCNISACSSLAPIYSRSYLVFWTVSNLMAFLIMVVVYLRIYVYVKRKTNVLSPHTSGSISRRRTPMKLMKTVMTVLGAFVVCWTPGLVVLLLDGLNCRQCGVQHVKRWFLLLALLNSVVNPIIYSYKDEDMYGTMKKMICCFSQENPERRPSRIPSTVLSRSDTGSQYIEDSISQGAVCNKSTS

[2] = biological target: T2, Lysophosphatidic acid receptor 1 (Homo sapiens, UniProt Q92633); experiment: Antagonist activity at human LPA1 receptor expressed in CHO cells assessed as inhibition of LPA-induced calcium mobilization preincubated for 30 mins followed by LPA induction by FLIPR Calcium 4 dye-based fluorometric analysis; assay type: functional, cell-based
[3] = biological target: T1, Lysophosphatidic acid receptor 3; experiment: Antagonist activity at human LPA3 receptor expressed in CHO cells assessed as inhibition of LPA-induced calcium mobilization preincubated for 30 mins followed by LPA induction by FLIPR Calcium 4 dye-based fluorometric analysis; assay type: functional, cell-based
[4] = biological target: T3, Lysophosphatidic acid receptor 2 (Homo sapiens, UniProt Q9HBW0); experiment: Antagonist activity at human LPA2 receptor expressed in rat B103 cells assessed as inhibition of LPA-induced calcium mobilization preincubated for 30 mins followed by LPA induction by FLIPR Calcium 4 dye-based fluorometric analysis; assay type: functional, cell-based
[5] = biological target: T4, Lysophosphatidic acid receptor 4 (Homo sapiens, UniProt Q99677); experiment: Antagonist activity at human LPA4 receptor expressed in rat B103 cells assessed as inhibition of LPA-induced calcium mobilization preincubated for 30 mins followed by LPA induction by FLIPR Calcium 4 dye-based fluorometric analysis; assay type: functional, cell-based
[6] = biological target: Lysophosphatidic acid receptor 5 (Homo sapiens, UniProt Q9H1C0); experiment: Antagonist activity at human LPA5 receptor expressed in rat B103 cells assessed as inhibition of LPA-induced calcium mobilization preincubated for 30 mins followed by LPA induction by FLIPR Calcium 4 dye-based fluorometric analysis; assay type: functional, cell-based
[7] = biological target: Lysophosphatidic acid receptor 1 (Mus musculus, UniProt P61793); experiment: Antagonist activity at mouse LPA1 receptor transfected in HEK293T cells; assay type: cell-based, HEK-293T
[8] = biological target: T1, Lysophosphatidic acid receptor 3; experiment: Antagonist activity at human LPA3 receptor transfected in HEK293T cells; assay type: cell-based, HEK-293T
[9] = biological target: T2, Lysophosphatidic acid receptor 1; experiment: Agonist activity at human LPA1 receptor transfected in HEK293T cells after 30 mins by GTP[gamma-35S] binding assay; assay type: cell-based, HEK-293T
[10] = biological target: T3, Lysophosphatidic acid receptor 2; experiment: Agonist activity at human LPA2 receptor transfected in HEK293T cells after 30 mins by GTP[gamma-35S] binding assay; assay type: cell-based, HEK-293T
[11] = biological target: T1, Lysophosphatidic acid receptor 3; experiment: Agonist activity at human LPA3 receptor transfected in RH7777 cells assessed as mobilization of Ca2+ by fluorometric analysis; assay type: functional, cell-based
[12] = biological target: T2, Lysophosphatidic acid receptor 1; experiment: Agonist activity at human LPA1 receptor transfected in RH7777 cells assessed as mobilization of Ca2+ by fluorometric analysis; assay type: functional, cell-based
[13] = biological target: T2, Lysophosphatidic acid receptor 1; experiment: Antagonist activity at human LPA1 receptor expressed in RH7777 cells assessed as inhibition of LPA-induced calcium mobilization by Fura-2 AM probe-based fluorometric analysis; assay type: functional, cell-based
[14] = biological target: T3, Lysophosphatidic acid receptor 2; experiment: Antagonist activity at human LPA2 receptor expressed in RH7777 cells assessed as inhibition of LPA-induced calcium mobilization by Fura-2 AM probe-based fluorometric analysis; assay type: functional, cell-based
[15] = biological target: T1, Lysophosphatidic acid receptor 3; experiment: Antagonist activity at human LPA3 receptor expressed in RH7777 cells assessed as inhibition of LPA-induced calcium mobilization by Fura-2 AM probe-based fluorometric analysis; assay type: functional, cell-based
[16] = biological target: T4, Lysophosphatidic acid receptor 4; experiment: Antagonist activity at human LPA4 receptor expressed in CHO cells assessed as inhibition of LPA-induced calcium mobilization by Fura-2 AM probe-based fluorometric analysis; assay type: functional, cell-based
[17] = biological target: T3, Lysophosphatidic acid receptor 2; experiment: Antagonist activity at human LPA2 receptor expressed in CHO cells assessed as inhibition of LPA-induced calcium mobilization preincubated for 30 mins followed by LPA induction by FLIPR Calcium 4 dye-based fluorometric analysis; assay type: functional, cell-based
[18] = biological target: T2, Lysophosphatidic acid receptor 1; experiment: Antagonist activity at human LPA1 receptor expressed in CHO cells assessed as inhibition of LPA-induced calcium mobilization preincubated with protein followed by LPA induction measured for 2 mins by Fluo-4 dye-based FLIPR assay; assay type: functional, cell-based
[19] = biological target: Lysophosphatidic acid receptor 1/lysophosphatidic acid receptor 3 (Rattus norvegicus, UniProt Q8K5E0+P61794); experiment: Antagonist activity at LPA1/LPA3 receptor (unknown origin); assay type: protein assay, Homo sapiens
[20] = Displacement of [32P]diazirine-LPA from LPA receptor in mouse N1E-115 cells preincubated for 1 hr in dark followed by UV irradiation for 5 mins by scintillation counting analysis; assay type: cell-based

T3 sequence (Q9HBW0 whole entry): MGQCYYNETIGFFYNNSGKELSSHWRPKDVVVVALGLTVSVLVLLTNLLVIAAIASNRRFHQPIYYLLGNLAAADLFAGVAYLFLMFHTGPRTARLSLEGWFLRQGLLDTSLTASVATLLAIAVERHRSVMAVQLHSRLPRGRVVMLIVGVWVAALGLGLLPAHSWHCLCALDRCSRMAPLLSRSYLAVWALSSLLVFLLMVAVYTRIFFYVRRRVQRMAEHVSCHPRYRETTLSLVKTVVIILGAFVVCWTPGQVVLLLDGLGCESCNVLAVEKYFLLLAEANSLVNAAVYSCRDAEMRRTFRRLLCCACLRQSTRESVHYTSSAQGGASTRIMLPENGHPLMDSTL
T2 sequence (Q92633 whole entry): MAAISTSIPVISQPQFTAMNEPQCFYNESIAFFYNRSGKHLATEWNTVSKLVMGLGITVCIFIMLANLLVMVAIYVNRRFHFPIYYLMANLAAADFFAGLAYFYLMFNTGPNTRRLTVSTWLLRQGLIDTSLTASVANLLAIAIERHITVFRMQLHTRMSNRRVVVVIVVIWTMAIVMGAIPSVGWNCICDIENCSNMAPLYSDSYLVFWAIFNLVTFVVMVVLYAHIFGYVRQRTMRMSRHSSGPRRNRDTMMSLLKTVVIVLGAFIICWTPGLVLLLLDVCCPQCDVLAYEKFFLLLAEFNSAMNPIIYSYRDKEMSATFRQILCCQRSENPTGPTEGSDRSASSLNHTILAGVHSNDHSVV
T4 sequence (Q99677 whole entry): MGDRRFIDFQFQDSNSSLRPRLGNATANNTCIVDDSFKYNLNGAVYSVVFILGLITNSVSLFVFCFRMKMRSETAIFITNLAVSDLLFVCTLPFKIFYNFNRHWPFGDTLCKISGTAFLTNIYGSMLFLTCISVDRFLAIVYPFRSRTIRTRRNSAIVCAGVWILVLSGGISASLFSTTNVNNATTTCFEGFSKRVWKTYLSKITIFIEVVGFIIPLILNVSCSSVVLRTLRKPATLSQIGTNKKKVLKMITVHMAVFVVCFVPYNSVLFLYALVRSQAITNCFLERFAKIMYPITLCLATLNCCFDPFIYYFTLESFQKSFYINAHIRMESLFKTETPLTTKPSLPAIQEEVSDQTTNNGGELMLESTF
Sequence of Lysophosphatidic acid receptor 5 (Q9H1C0 whole entry): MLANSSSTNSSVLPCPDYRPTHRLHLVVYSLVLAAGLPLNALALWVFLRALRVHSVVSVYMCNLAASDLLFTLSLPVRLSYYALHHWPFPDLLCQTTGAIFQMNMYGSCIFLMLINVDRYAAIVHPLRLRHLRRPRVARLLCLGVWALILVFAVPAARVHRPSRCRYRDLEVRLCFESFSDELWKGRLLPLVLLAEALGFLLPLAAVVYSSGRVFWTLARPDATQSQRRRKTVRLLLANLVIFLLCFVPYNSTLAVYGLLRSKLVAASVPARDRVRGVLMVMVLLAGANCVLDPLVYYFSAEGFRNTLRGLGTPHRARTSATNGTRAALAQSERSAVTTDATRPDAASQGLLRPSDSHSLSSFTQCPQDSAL
Sequence of Lysophosphatidic acid receptor 1 (Mus musculus, UniProt P61793) (P61793 whole entry): as the sequence (Q92633 whole entry) above, with I4A, I8S, P22Q, H40Y, I61V, E193D, N194H, I269V, S331N, T335N counted along it

SMILES: CCCCCCCC/C=C\CCCCCCCC(=O)OC[C@@H](COP(O)(O)=S)OC
- EC50 [1]: 276 nM

SMILES: Cc1noc(-c2ccc(-c3ccc(CC(=O)O)cc3)cc2)c1NC(=O)O[C@H](C)c1ccccc1
- IC50 [2]: 25 nM
- IC50 [3]: > 8000 nM
- IC50 [4]: > 8000 nM
- IC50 [5]: > 8000 nM
- IC50 [6]: > 8000 nM

SMILES: CCCCCCCC/C=C\CCCCCCCC(=O)N[C@H](COP(=O)(O)O)Cc1ccc(OCc2ccccc2)cc1
- IC50 [7]: 5210 nM
- IC50 [8]: 6450 nM

SMILES: CCCCCCCC/C=C\CCCCCCCC(=O)NCCOP(O)(O)=S
- EC50 [9]: 40 nM
- EC50 [10]: 108 nM

SMILES: CCCCCCCC/C=C\CCCCCCCC(=O)NCCSP(=O)(O)O
- EC50 [9]: 318 nM

SMILES: CCCCCCCC/C=C\CCCCCCCCOC[C@H](COP(O)(O)=S)OC
- EC50 [11]: 62 nM
- EC50 [12]: 790 nM

SMILES: CCCCCCCC/C=C\CCCCCCCCOC[C@@H](COP(O)(O)=S)OC
- EC50 [11]: 80 nM
- EC50 [12]: 571 nM

SMILES: CCCCCC/C=C\CCCCCCCC(=O)OC[C@@H](O)CC(Br)P(=O)(O)O (some centres not stated)
- IC50 [13]: 1500 nM
- IC50 [14]: 1420 nM
- IC50 [15]: 1160 nM
- IC50 [16]: 266 nM

SMILES: Cc1noc(-c2ccc(-c3ccc(CC(=O)O)cc3)cc2)c1NC(=O)O[C@H](C)c1ccccc1Cl
- IC50 [17]: 1700 nM
- IC50 [2]: 17 nM
- IC50 [3]: 1600 nM

SMILES: Cc1nsc(-c2ccc(-c3ccc(CC(=O)O)cc3)cc2)c1NC(=O)O[C@H](C)c1ccccc1Cl
- IC50 [2]: < 50 nM
- IC50 [3]: > 500 nM

SMILES: COc1ccc([C@@H](O)C(=O)N(CCCc2ccccc2)Cc2nc(C(=O)NS(C)(=O)=O)c(C)s2)c(F)c1
- IC50 [18]: 6.6 nM

SMILES: COc1ccc(C(=O)NC2(C(=O)O)Cc3ccccc3C2)cc1OCCc1cccc(C)c1 [FIPAXALPARANT]
- IC50 [19]: < 100 nM

SMILES: CCCCCCCC/C=C\CCCCCCCC(=O)OC[C@@H](O)COP(=O)(O)O [LYSOPHOSPHATIDIC ACID]
- IC50 [20]: 10 nM
